BindingDB's records for patent US8987287 (Purdue Pharma, 2015)

Experiments:
Mu-type opioid receptor = Mu-type opioid receptor (Homo sapiens, UniProt P35372); assay: Radioligand Dose-Displacement Binding Assay; conditions: pH 7.4; 50 °C
Experimental: mu-Opioid Receptor Binding Assay Procedures: Radioligand dose-displacement binding assays for mu-opioid receptors used 0.3 nM [3H]-diprenorphine (Perkin Elmer, Shelton, Conn.), with […]/well in a final volume of 500 ul binding buffer (10 mM MgCl2, 1 mM EDTA, 5% DMSO, 50 mM HEPES, pH 7.4). Reactions were carried out in the absence or presence of increasing concentrations of unlabeled naloxone. All reactions were conducted in 96-deep well polypropylene plates for 2 hours at room temperature. Binding reactions were terminated by rapid filtration onto 96-well Unifilter GF/C filter plates (Perkin Elmer, Shelton, Conn.), presoaked in 0.5% polyethylenimine using a 96-well tissue harvester (Perkin Elmer, Shelton, Conn.) followed by performing three filtration washes with 500 ul of ice-cold binding buffer. Filter plates were subsequently dried at 50 C. for 2-3 hours. BetaScint scintillation cocktail (Perkin Elmer, Shelton, Conn.) was added (50 ul/well).

[1] = biological target: Kappa-type opioid receptor (Homo sapiens, UniProt P41145); assay: Radioligand Dose-Displacement Binding Assay; conditions: pH 7.4; 25 °C
Chain of Kappa-type opioid receptor (P41145 whole entry): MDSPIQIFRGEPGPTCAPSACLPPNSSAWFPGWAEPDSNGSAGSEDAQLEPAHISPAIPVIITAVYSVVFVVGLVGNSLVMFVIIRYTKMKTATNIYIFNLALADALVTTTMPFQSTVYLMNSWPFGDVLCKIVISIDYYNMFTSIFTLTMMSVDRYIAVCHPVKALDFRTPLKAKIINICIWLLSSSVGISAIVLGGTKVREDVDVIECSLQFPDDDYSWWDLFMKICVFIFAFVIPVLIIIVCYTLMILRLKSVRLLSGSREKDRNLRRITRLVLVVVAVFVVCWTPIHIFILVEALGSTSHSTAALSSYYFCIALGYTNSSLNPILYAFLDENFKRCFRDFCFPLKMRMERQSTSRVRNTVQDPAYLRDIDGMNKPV
Experimental: Radioligand dose displacement assays used 0.4 nM [3H]-U69,593 (GE Healthcare, Piscataway, N.J.; 40 Ci/mmole) with 15 ug membrane protein (recombinant kippa opioid receptor expressed in HEK 293 cells; in-house prep) in a final volume of 200 ul binding buffer (5% DMSO, 50 mM Trizma base, pH 7.4). Non-specific binding was determined in the presence of 10 uM unlabeled naloxone or U69,593. All reactions were performed in 96-well polypropylene plates for 1 hour at a temperature of about 25 C. Binding reactions were terminated by rapid filtration onto 96-well Unifilter GF/C filter plates (Perkin Elmer, Shelton, Conn.) presoaked in 0.5% polyethylenimine (Sigma). Harvesting was performed using a 96-well tissue harvester (Perkin Elmer, Shelton, Conn.) followed by five filtration washes with 200 ul ice-cold binding buffer. Filter plates were subsequently dried at 50 C. for 1-2 hours. Fifty ul/well scintillation cocktail (Perkin Elmer, Shelton, Conn.) was added.

Chain of Mu-type opioid receptor (P35372 whole entry): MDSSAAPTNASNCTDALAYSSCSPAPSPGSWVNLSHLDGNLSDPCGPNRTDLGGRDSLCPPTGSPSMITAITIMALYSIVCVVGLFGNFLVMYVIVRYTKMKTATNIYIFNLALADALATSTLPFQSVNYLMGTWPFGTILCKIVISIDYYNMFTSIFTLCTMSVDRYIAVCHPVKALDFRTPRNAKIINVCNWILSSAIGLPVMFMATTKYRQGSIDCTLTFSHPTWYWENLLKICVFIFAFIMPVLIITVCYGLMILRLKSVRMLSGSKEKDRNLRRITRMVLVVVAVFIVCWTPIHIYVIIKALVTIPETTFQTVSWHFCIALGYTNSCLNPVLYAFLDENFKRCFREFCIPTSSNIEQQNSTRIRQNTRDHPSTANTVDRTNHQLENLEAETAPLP

**Q.** `COc1ccc2c(c1)[C@]13CCN(C)[C@H](C2)[C@]1(O)CC[C@@]1(C3)NC(=O)NC1=O` [US8987287, 9] was tested. Which Ki (Mu-type opioid receptor) did it give?
**A.** 3.88 µM

**Q.** What about the Ki [1] of the same molecule?
**A.** > 20 µM
